Here are results for two compounds from patent US9321758B2, “Amorphous salt of a macrocyclic inhibitor of HCV” (Janssen Pharmaceuticals, Inc., priority 2009, dated 2016).

Molecules are shown by their SMILES.

A short description of series [1]: Adsorption-Desorption (DVS), dynamic vapor sorption. The format is physicochemical. Particulars: for water adsorbed: at high relative humidity. As to the method:
Amorphous TMC435 (19 mg) was transferred into a SMS (Surface Measurement Systems Ltd.) dynamic vapor sorption model DVS-1 and the weight change was recorded with respect to the atmospheric humidity at 25° C.

A short description of series [2]: Long-term storage stability of the amorphous form by powder XRD. In kind it is physicochemical. Particulars: stored during 1 year, 8 months and 23 days. On the procedure: This means that the amorphous Na salt of TMC435 allows stable storage during a normal shelf life period. X-ray powder diffraction (XRPD) analysis was carried out on a Philips X′PertPRO MPD diffractometer PW3050/60 with generator PW3040. The instrument was equipped with a Cu LFF X-ray tube PW3373/10. The compound was spread on a zero background sample holder.

A short description of a further series: Water solubility. In kind it is physicochemical.
A short description of series [3]: Clinical investigations, tolerability in patients. The format is in vivo.

As for `COc1ccc2c(O[C@@H]3C[C@H]4C(=O)N[C@]5(C(=O)[N-]S(=O)(=O)C6CC6)C[C@H]5/C=C\CCCCN(C)C(=O)[C@@H]4C3)cc(-c3nc(C(C)C)cs3)nc2c1C.[Na+]` [amorphous sodium salt of TMC435], in series [1] (DVS desorption cycle, 25° C.), the “moisture remaining on the product during the desorption cycle” value was determined as 1.61%. The “weight loss during the initial drying step” value in series [1] (DVS, drying 60 min under dry nitrogen, 25° C.) is 2.03%. The water adsorbed entry in series [1] (25° C.) is given as “up to 13%”; in series [1] (25° C., listed as sodium salt of compound I), “up to 13.1%”. Besides, the “stability when water is absorbed” value in series [1] (brought into contact with humidity) was “remains stable”. Besides, the hygroscopicity entry in series [1] (listed as Amorphous Sodium Salt Prepared According to Example 1) is “Hygroscopic”; in series [1] (listed as sodium salt of compound I) it was “hygroscopic”. The “solid form after DVS (IR and XRD)” value in series [1] (product obtained after DVS) is “remained amorphous”. Also, the “powder XRD pattern after storage compared with pattern shortly after preparation” value in series [2] was “remained essentially unchanged”.

For the compound `COc1ccc2c(O[C@@H]3C[C@H]4C(=O)N[C@]5(C(=O)NS(=O)(=O)C6CC6)C[C@H]5/C=C\CCCCN(C)C(=O)[C@@H]4C3)cc(-c3nc(C(C)C)cs3)nc2c1C` [TMC435, (1R,4R,6S,15R,17R)-cis-N-[17-[2-(4-isopropylthiazol-2-yl)-7-methoxy-8-methyl-quinolin-4-yloxy]-13-methyl-2,14-dioxo-3,13-diazatricyclo[13.3.0.0^4,6]octadec-7-ene-4-carbonyl] (cyclopropyl)sulfonamide], the water solubility entry in “Water solubility” was “poorly water-soluble”. The tolerability in patients entry in series [3] is listed as “well-tolerated”.
